According to US20150238401A1, “PROPYL-PHENYL-ETHER DERIVATIVE, AND MELANOGENESIS INHIBITOR, SKIN-LIGHTENING AGENT, ANTIMICROBIAL AGENT AND COSMETIC CONTAINING SAID PROPYL-PHENYL-ETHER DERIVATIVE” (SEIWA KASEI COMPANY, LIMITED, priority 2012, published 2015):

Key:
B16 melanoma 4A5 cell = assay: Melanogenesis inhibiting test (theophylline-induced melanine production); type: cell-based; settings: B16 mouse melanoma 4A5, theophylline 1.0 mmol/L, 3 days culture, N=4; for IC40: B16 melanoma 4A5, 72 h, read-out: Judgment: sample concentration showing the melanogenesis inhibiting ratio of 40% or more
Method: As a test for a skin-lightening effect, evaluation of the action of B16 melanoma 4A5 cell on theophylline-induced melanine production was carried out on propyl-phenyl-ether derivatives of the present invention, according to the following procedure. (1) B16 mouse melanoma 4A5 strain was sowed onto a 48-well plate at a cell density of 8.0×10^3 cells/well. (2) Culturing was performed for 24 hours with Dulbecco's Modified Eagle's medium (manufactured by SIGMA. Hereinafter, abbreviated as D-MEM) containing 10% fetal bovine serum (manufactured by Nichirei Biosciences Inc.). […] (3) After culturing for 3 days in the co-existence of a sample, the medium was removed using an aspirator. Then, after distilled water was added, cells were broken by an ultrasonic wave. (4) Thereafter, the amount of protein was determined using BCA protein assay kit (manufactured by Thermo Fisher Scientific Inc.), and the produced amount of melanine was measured by an alkali solubilizing method described below. [Alkali Solubilizing Method] To the cell-destructed solution was added sodium hydroxide so as to give a final concentration of 1 mol/L and the mixture was dissolved by heating (60° C., 30 minutes), then, the absorbance at 450 nm was measured using a micro plate reader. The melanine amount was calculated from a calibration curve made using synthetic melanine (SIGMA) as a standard. The melanine amount per unit protein was calculated by dividing the melanine amount by the protein amount. (5) The melanine production suppressing rate was calculated according to the following formula. Melanine production suppressing rate (%)=[1−(A−B)/(C−B)]×100 [wherein, A represents the melanine amount per unit protein (g/g) in adding a sample, B represents the melanine amount per unit protein (g/g) in the normal group, and C represents the melanine amount per unit protein (g/g) in the control group.] In the above, Normal group is a case of theophylline (−; no addition) and sample (−; no addition), and Control group is a case of theophylline (+; addition) and sample (−; no addition). (6) Determination of Skin-Lightening Effect The amount of a sample required for adjusting the melanogenesis inhibiting ratio to 40% or more was measured, and the effect was evaluated by the following criteria based on the measured amount. The measurement was conducted at N=4 (4 wells per sample). The skin-lightening effect is expressed as described below based on the sample concentration showing the melanogenesis inhibiting ratio of 40% or more. The measurement was conducted at N=4.

[1] = test system: Propionibacterium acnes (JCM6415); assay: Anti-acne test (growth in GAM bouillon medium, OD620); type: cell-based; settings: sample final concentration 0.1%, 37° C., anaerobic, 48 hours
Method: Propionibacterium acnes (JCM6415: ATCC strain) was transplanted to GAM bouillon medium (manufactured by Nissui Pharmaceutical Co., Ltd.), and cultured at 37° C. under anaerobic condition for 24 hours. Thereafter, it was diluted with GAM bouillon medium so that the final bacterium concentration was OD620=0.1, and this was used as a test bacterium solution. In examples, the propyl-phenyl-ether derivative was weighed so that the final concentration was 0.1%, dissolved in GAM bouillon medium, then, filter-sterilization was performed. The resultant solution was used as a sample solution. The test bacterium solution was added in an amount of 30 μL and the sample solution was added in an amount of 120 μL to a 96-well microplate (manufactured by Sumitomo Bakelite Co., Ltd.), then, immediately, the micro plate and AnaeroPack-KENKI (manufactured by Mitsubishi Gas Chemical Co., Inc.) were placed into an anaerobic jar (manufactured by Mitsubishi Gas Chemical Co., Inc.), and culture was carried out at 37° C. under anaerobic condition for 48 hours. Thereafter, OD620 was measured by a microplate reader. The same test was conducted using methylparaben, phenoxyethanol and sodium ascorbate as comparative compounds.
The results are classified by the following criteria and shown in Table 5-Table 7. • Δ: OD620 is 0.6 or more • ◯: OD620 is 0.3-0.6 • ⊚: OD620 is 0.3 or less

SMILES	IC40 (B16 melanoma 4A5 cell) [µM]	Judgment: OD620 after culture [1]	Judgment: sample concentration showing the melanogenesis inhibiting ratio of 40% or more (B16 melanoma 4A5 cell)
CC(O)COc1ccc(C(C)(C)C)cc1 (stereo not drawn) [Example 2, 2-hydroxy-3-(4′-tert-butylphenoxy)propyl]	30 to 100	⊚ (⊚: OD620 is 0.3 or less)	–
Cc1cc(OCC(O)CO)ccc1C(C)C (stereo not drawn) [Example 31, 1,2-di-hydroxy-3-(3′-methyl-4′-isoproylphenoxy)propyl]	≤ 30	⊚⊚	–
CCOCC(O)COc1ccc(C(C)(C)c2ccccc2)cc1 (stereo not drawn) [Example 28, 1-O-ethyl-2-hydroxy-3-(4′-α-cumylphenoxy)propyl]	≤ 30	⊚⊚	–
CCCCC(CC)COCC(O)COc1ccccc1C(C)CC (stereo not drawn) [Example 26, 1-O-(2″-ethylhexyl)-2-hydroxy-3-(2′-sec-butylphenoxy) propyl]	30 to 100	⊚ (⊚: OD620 is 0.3 or less)	–
CC(C)(C)c1ccc(OCC(O)CO)c(C(C)(C)C)c1 (stereo not drawn) [Example 20, 1,2-di-hydroxy-3-(2′,4′-di-tert-butylphenoxy)propyl]	≤ 30	⊚⊚	–
CCCOc1ccc(C(C)(C)C)cc1 [Synthesis Example 1, 1-(4′-tert-butylphenoxy)propyl, reference compound]	≥ 300	Δ (Δ: OD620 is 0.6 or more)	–
CCOCC(O)COc1ccc(C(C)(C)c2ccc(OCC(O)COCC)cc2)cc1 (stereo not drawn) [Example 32, 2,2-bis[4′-(1″-O-ethyl-2″-hydroxypropoxy)phenyl]propane]	≤ 30	⊚⊚	–
O=C1O[C@H]([C@@H](O)CO)C([O-])=C1O.[Na+] [Sodium Ascorbate, reference compound]	–	Δ (Δ: OD620 is 0.6 or more)	–
COC(=O)c1ccc(O)cc1 [Methylparaben, reference compound]	–	Δ (Δ: OD620 is 0.6 or more)	–
CCC(C)(C)c1ccc(OCC(O)CO)cc1 (stereo not drawn) [Example 15, 1,2-di-hydroxy-3-(4′-tert-amylphenoxy)propyl]	≤ 30	⊚⊚	–
CCc1ccc(OCC(O)CO)cc1 (stereo not drawn) [Example 14, 1,2-di-hydroxy-3-(4′-ethylphenoxy)propyl]	100 to 300	⊚ (⊚: OD620 is 0.3 or less)	–
CC(C)c1ccc(OCC(O)CO)cc1 (stereo not drawn) [Example 13, 1,2-di-hydroxy-3-(4′-isopropylphenoxy)propyl]	30 to 100	⊚ (⊚: OD620 is 0.3 or less)	–
CC(C)(C)c1ccc(OCC(O)COc2ccc(O)cc2)cc1 (stereo not drawn) [Example 9, 1-(4″-hydroxyphenoxy)-2-hydroxy-3-(4′-tert-butylphenoxy)propyl]	30 to 100	⊚ (⊚: OD620 is 0.3 or less)	–
Cc1ccccc1OCC(O)CO (stereo not drawn) [Synthesis Example 4, 1,2-di-hydroxy-3-(2′-methylphenoxy)propyl, reference compound]	≥ 300	Δ (Δ: OD620 is 0.6 or more)	–
CCOCC(O)COc1c(C(C)CC)cccc1C(C)CC (stereo not drawn) [Example 30, 1-O-ethyl-2-hydroxy-3-(2′,6′-di-sec-butylphenoxy)propyl]	≤ 30	⊚⊚	–
CCOCC(O)COc1ccc(C(C)(C)CC(C)(C)C)cc1 (stereo not drawn) [Example 33, 1-O-ethyl-2-hydroxy-3-[4′-(1″,1″,3″,3″-tetramethylbutyl)phenoxy]propyl]	30 to 100	⊚ (⊚: OD620 is 0.3 or less)	–
Cc1cc(C(C)(C)C)c(OCC(O)CO)c(C(C)(C)C)c1 (stereo not drawn) [Example 22, 1,2-di-hydroxy-3-(2′,6′-di-tert-butyl-4′-methylphenoxy) propyl]	≤ 30	⊚⊚	–

SMILES	IC40 (B16 melanoma 4A5 cell) [µM]	Judgment: OD620 after culture [1]	Judgment: sample concentration showing the melanogenesis inhibiting ratio of 40% or more (B16 melanoma 4A5 cell)
CC(C)(C)c1ccc(OCC(O)COCC(O)COc2ccc(C(C)(C)C)cc2)cc1 (stereo not drawn) [Example 10, di[2-hydroxy-3-(4′-tert-butylphenoxy)propyl]ether]	100 to 300	⊚ (⊚: OD620 is 0.3 or less)	–
CCCCc1ccc(OCC(O)CO)cc1 (stereo not drawn) [Example 12, 1,2-di-hydroxy-3-(4′-n-butylphenoxy)propyl]	30 to 100	◯ (◯: OD620 is 0.3-0.6)	–
CCOCC(O)COc1ccc(C(C)CC)cc1 (stereo not drawn) [Example 4, 1-O-ethyl-2-hydroxy-3-(4′-sec-butylphenoxy)propyl]	–	⊚ (⊚: OD620 is 0.3 or less)	⊚ (30 to 100 μmol/L: ⊚)
CCOC(CO)COc1ccc(C(C)(C)C)cc1 (stereo not drawn) [2-O-ethyl-1-hydroxy-3-(4′-tert-butylphenoxy)propyl]	≤ 30	⊚⊚	–
COc1ccc(OCC(O)CO)c(C(C)(C)C)c1 (stereo not drawn) [Example 23, 1,2-di-hydroxy-3-(2′-tert-butyl-4′-methoxylphenoxy)propyl]	30 to 100	⊚ (⊚: OD620 is 0.3 or less)	–
COc1ccc(OCC(O)CO)cc1C(C)(C)C (stereo not drawn) [Example 24, 1,2-di-hydroxy-3-(3′-tert-butyl-4′-methoxylphenoxy)propyl]	30 to 100	⊚ (⊚: OD620 is 0.3 or less)	–
CCOCC(O)COc1ccc(C(C)C)c(C)c1 (stereo not drawn) [Example 29, 1-O-ethyl-2-hydroxy-3-(3′-methyl-4′-isoproylphenoxy)propyl]	≤ 30	⊚⊚	–
CC(C)(C)c1ccc(OCCCO)cc1 [Example 18, 1-hydroxy-3-(4′-tert-butylphenoxy)propyl]	30 to 100	⊚ (⊚: OD620 is 0.3 or less)	–
CC(C)(C)CC(C)(C)c1ccc(OCC(O)CO)cc1 (stereo not drawn) [Example 17, 1,2-di-hydroxy-3-[4′-(1″,1″,3″,3″-tetramethylbutyl)phenoxy]propyl]	≤ 30	⊚⊚	–
Cc1cc(OCC(O)CO)c(C(C)(C)C)cc1C(C)(C)C (stereo not drawn) [Example 21, 1,2-di-hydroxy-3-(2′,4′-di-tert-butyl-5′-methylphenoxy)propyl]	≤ 30	⊚⊚	–
CC(C)(C)c1ccc(OCC(O)COc2ccc(C(C)(C)C)cc2)cc1 [Example 8, 2-hydroxy-1,3-di-(4′-tert-butylphenoxy)propyl]	≤ 30	⊚⊚	–
OCC(O)COc1ccccc1 (stereo not drawn) [Synthesis Example 3, 1,2-di-hydroxy-3-phenoxypropyl, reference compound]	≥ 300	Δ (Δ: OD620 is 0.6 or more)	–
CCOc1ccc(C(C)(C)C)cc1 [Synthesis Example 2, 1-(4′-tert-butylphenoxy)ethyl, reference compound]	≥ 300	Δ (Δ: OD620 is 0.6 or more)	–
CCC(C)c1cccc(C(C)CC)c1OCC(O)CO (stereo not drawn) [Example 19, 1,2-di-hydroxy-3-(2′,6′-di-sec-butylphenoxy)propyl]	≤ 30	⊚⊚	–
CC(C)(c1ccc(OCC(O)CO)cc1)c1ccc(OCC(O)CO)cc1 (stereo not drawn) [Example 25]	≤ 30	⊚⊚	–
CC(C)(c1ccccc1)c1ccc(OCC(O)CO)cc1 (stereo not drawn) [Example 16, 1,2-di-hydroxy-3-(4′-α-cumylphenoxy)propyl]	30 to 100	⊚ (⊚: OD620 is 0.3 or less)	–
CCOCC(O)COc1ccccc1C(C)CC (stereo not drawn) [Example 27, 1-O-ethyl-2-hydroxy-3-(2′-sec-butylphenoxy)propyl]	30 to 100	⊚ (⊚: OD620 is 0.3 or less)	–
